Results as given in patent US20260263553A1, “METHODS OF TREATING A LOCALIZED INFECTION WITH LOCALLY ADMINISTERED ANTIBIOTICS” (Osteal Therapeutics, Inc., priority 2023, published 2026).

Columns and labels:
[1] = in vivo; cited from earlier work
[2] = Serum concentrations during 7-day local irrigation of the infected joint (PJI clinical investigation); assay type: in vivo, human; settings: daily dose 2.6 g at 2,500 mcg/mL by irrigation for 7 days
Method: Irrigation of vancomycin and tobramycin within the manufacturer's recommended systemic dose for the treatment of PJI has been investigated clinically. A daily dose of 2.6 g vancomycin at a concentration of 2,500 mcg/mL and a daily dose of 80 mg of tobramycin at 1,600 mcg/mL were administered by irrigation to the infected joint for 7 days following stage one surgery of a two-stage exchange arthroplasty treatment. […] The serum concentrations of vancomycin over a 7-day period for 37 human subjects who received local irrigation of 50 cc at a concentration of 2,500 mcg/mL intermittently are shown in FIG. 6.

[3] = tested on: common PJI organisms; test: Minimum biofilm eradication concentration (MBEC); assay type: cell-based; settings: multiple common PJI organisms
Text: The formation of biofilm, a frequent occurrence in infected wounds with a medical device in situ such as PJI, BII, or FRI, begins early after onset of infection and provides an additional mechanism of resistance to antibiotic therapy. It is well established that the organisms in a mature biofilm structure, formed in a matter of days or a few weeks, are not susceptible to common antibiotics at the typical MIC of planktonic counterparts. […] The concentration at which eradication of an organism in a biofilm is accomplished is known as the minimum biofilm eradication concentration (MBEC) for the specific antimicrobial agent and organism tested. MBEC is not the same for all antimicrobial agents used to treat the same organism, nor is it the same for one antimicrobial agent applied to different strains or organisms.

[4] = instillation of 50,000-100,000 mcg/mL once or twice daily into the joint space; cited from earlier work

SMILES	maximum safe level, peak serum concentrations [1]	sustained trough levels associated with toxicity [1]	maximum safe level, trough serum concentrations [1]	serum concentration levels [2]	MBEC [3]	serum concentrations [4]
NC[C@H]1O[C@H](O[C@H]2[C@H](O)[C@@H](O[C@H]3O[C@H](CO)[C@@H](O)[C@H](N)[C@H]3O)[C@H](N)C[C@@H]2N)[C@H](N)C[C@@H]1O [tobramycin]	10 µg/mL	> 2 µg/mL				
CN[C@H](CC(C)C)C(=O)N[C@H]1C(=O)N[C@@H](CC(N)=O)C(=O)N[C@H]2C(=O)N[C@H]3C(=O)N[C@H](C(=O)N[C@H](C(=O)O)c4cc(O)cc(O)c4-c4cc3ccc4O)[C@H](O)c3ccc(c(Cl)c3)Oc3cc2cc(c3O[C@@H]2O[C@H](CO)[C@@H](O)[C@H](O)[C@H]2O[C@H]2C[C@](C)(N)[C@H](O)[C@H](C)O2)Oc2ccc(cc2Cl)[C@H]1O [vancomycin]			30 µg/mL	well below the safe serum concentration	greater than 4,000 mcg/mL	serum concentrations exceeding safe limits in multiple patients
